Test results taken from patent US20080051464A1, “Protein phosphatase inhibitors” (The Cleveland Clinic Foundation, priority 2006, published 2008).

How the values were obtained:
[1] = tested on: pZap70, pSlp76 and pLAT in Jurkat cells; assay: induction of pZap70, pSlp76 and pLAT in Jurkat cells (Western blotting); format: cell-based, human
Experimental: Jurkat cells in culture medium (3×10^6 cells/ml, 1 ml/tube) were treated with agents for designated times at room temperature. After brief centrifuging in a microfuge (4,000 rpm, 2 min), the cell pellet was lysed on ice for 30 min in 100 μl of cold lysis buffer (1% NP40, 50 mM Tris, pH 7.4, 150 mM NaCl, 20 mM NaF, 0.2 mM Na3VO4 and 1 mM Na3MO4) containing a cocktail of proteinase inhibitors (Sigma, 1 tablet/10 ml). The lysates were cleared by centrifuging (14,000 rpm, 10 min) in a microfuge at 4° C. to remove insoluble parts, mixed with equal volume of 2×SDS-PAGE sample buffer, boiled for 5 min and analyzed (˜3×10^5 cells/well) by SDS-PAGE/Western blotting. Relative intensities of phosphotyrosine bands were quantified through densitometry analysis.
Jurkat cells in culture medium (3×10^6 cells/ml, 1 ml/tube) were treated with agents for designated times at room temperature. […] The lysates were cleared by centrifuging (14,000 rpm, 10 min) in a microfuge at 4° C. to remove insoluble parts, mixed with equal volume of 2×SDS-PAGE sample buffer, boiled for 5 min and analyzed (˜3×10^5 cells/well) by SDS-PAGE/Western blotting as described previously (17, 18). Relative intensities of phosphotyrosine bands were quantified through densitometry analysis.

toxicity of L5 in mice = format: in vivo, mouse; details: 10 mg/kg, daily, s.c., two weeks
Experimental: FIG. 3 illustrates differential toxicity of L5 and L6. Jurkat cells were cultured in the absence or presence of lead compound #5 (L5) (A) or #6 (L6) (B) for 6 days prior to quantification of cell growth by MTT assays. Data represent mean ±SD of triplicate samples. Balb/c mice were treated with L5 (˜10 mg/kg body weight, s.c., daily, M-F/wk) for two weeks to assess its toxicity in vivo (C).
Spleens were harvested one hour post-treatment on day 4 and processed into splenocytes, which were used for assessing pLck levels by SDS-PAGE/Western blotting and for quantification of IFNγ+ cells by ELISPOT assays. Mice were also treated with L5 (˜10 mg/kg body weight, daily, s.c., n=2) to evaluate the toxicity of the compounds in vivo.

[2] = tested on: IFNγ+ cells in mouse splenocytes; assay: induction of IFNγ+ cells in mouse splenocytes in vitro (ELISPOT); format: cell-based; details: for increase of IFNγ+ cells in splenocytes: 16 hrs (FIG. 5A)
Experimental: The splenocytes were cultured in RPMI 1640 medium supplemented with 10% FCS in the absence or presence of designated agents for 16 hrs in flat-bottom 96-well plates coated with a monoclonal antibody specific for mouse IFNγ (mouse IFNγ ELISPOT Kit, R & D System). The plates were then processed for in situ detection of IFNγ+ cells by ELISA following the manufacturer's procedure. Scanning and counting of IFNγ+ cells in the plates were accomplished using an automatic ELISPOT reader with Immunospot2 software (Cellular Technology Ltd). Mouse splenocytes were also untreated or treated with agents for 16 hrs in culture dishes and then stained with appropriate isotype control antibodies or FICT-labeled anti-CD3 monoclonal antibody (BD) plus PE-labeled monoclonal antibody (BD) for intracellular IFNγ following established procedures. The stained samples were washed 3 times, re-suspended in 200 μl of 1% para-formaldehyde solution and analyzed (20,000 cells/sample) using a BD FACS Caliburs cytometer and WinList software.
The splenocytes were cultured in RPMI 1640 medium supplemented with 10% FCS in the absence or presence of designated agents for 16 hrs in flat-bottom 96-well plates coated with a monoclonal antibody specific for mouse IFNγ (mouse IFNγ ELISPOT Kit, R & D System). The plates were then processed for in situ detection of IFNγ+ cells by ELISA following the manufacturer's procedure. Scanning and counting of IFNγ+ cells in the plates were accomplished using an automatic ELISPOT reader with Immunospot2 software (Cellular Technology Ltd).

## O=C1C=CC(=O)C(c2cc(Cl)ccc2Cl)=C1 [L5]
[1]; 0.01, 0.1, 1 or 3 μg/ml
  levels of pZap70 and pSlp76: obviously increased
[1]; L5-treated Jurkat cells
  pLAT: induced pLAT
Toxicity of L5 in mice
  viability of mice: all alive
[2]; 0.001 μg/ml (FIG. 11)
  induction of IFNγ+ cells: inactive
[2]; 1 μg/ml
  increase of IFNγ+ cells in splenocytes: ~14 fold
[2]; 3 μg/ml
  increase of IFNγ+ cells in splenocytes: ~26 fold
[2]; 10 μg/ml
  increase of IFNγ+ cells in splenocytes: ~17 fold
[2]; 30 μg/ml
  increase of IFNγ+ cells in splenocytes: ~10 fold
[2]; 0.01 to 1 μg/ml (FIG. 11A)
  induction of IFNγ+ cells: effective
[2]; FIG. 11
  minimal effective dose for IFNγ+ cell induction: 10 ng/mL
[2]; higher doses (FIG. 16B)
  induction of IFNγ+ cells: induced significant IFNγ+ cells
[2]; low doses (0.01 to 1 μg/ml), splenocytes of the same mouse (FIG. 16B)
  induction of IFNγ+ cells: 3-4 fold
[2]; maximal induction at a comparable dose, mouse splenocytes
  effectiveness compared with SSG in inducing IFNγ+ cells: ~58 fold
